Test results from patent US20250163104A1, “MACROCYCLIC IMMUNOMODULATORS” (priority 2021, published 2025).
Where a SMILES comes first, the peptide text is derived from it. Bridges are numbered along the chain shown (N, C = ends). [ ]: non-standard residue; d: D form. The star is where a group is joined. ξ: configuration not given here. Tyr(3,5-F2) = N[C@@H](Cc1cc(F)c(O)c(F)c1)C(=O)O; Phe(4-COOH) = N[C@@H](Cc1ccc(C(=O)O)cc1)C(=O)O; Bip = N[C@@H](Cc1ccc(-c2ccccc2)cc1)C(=O)O; Gly(cPent) = N[C@H](C(=O)O)C1CCCC1; 4Pal = N[C@@H](Cc1ccncc1)C(=O)O; Cha = N[C@@H](CC1CCCCC1)C(=O)O; Cit = NC(=O)NCCC[C@H](N)C(=O)O; Ile(3ξ) = CCC(C)[C@H](N)C(=O)O; dCha = N[C@H](CC1CCCCC1)C(=O)O; Thr(3ξ) = CC(O)[C@H](N)C(=O)O; Carboxymethyl = O=C(O)C*; Nle = CCCC[C@H](N)C(=O)O; Orn = NCCC[C@H](N)C(=O)O; Dab = NCC[C@H](N)C(=O)O; Dap = NC[C@H](N)C(=O)O; ξPra = C#CCC(N)C(=O)O

Molecular target: T1, human PD-1 / PD-L1-Ig binding on Jurkat cell line over-expressing human PD-1 (Jurkat-PD-1) (Homo sapiens, UniProt Q15116)
T1 construct: expressed in transfected cells; host or cells: Jurkat
T1 sequence (Q15116 25-288): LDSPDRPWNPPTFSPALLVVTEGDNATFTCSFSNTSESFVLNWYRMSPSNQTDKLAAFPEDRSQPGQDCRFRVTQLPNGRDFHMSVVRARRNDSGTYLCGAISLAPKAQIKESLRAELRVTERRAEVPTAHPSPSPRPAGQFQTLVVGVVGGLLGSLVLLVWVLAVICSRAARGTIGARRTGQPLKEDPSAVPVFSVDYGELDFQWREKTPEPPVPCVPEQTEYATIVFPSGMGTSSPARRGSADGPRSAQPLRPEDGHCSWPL
Test: Jurkat-PD-1 Cell Binding High-Content Screening Assay (CBA)
Format: cell-based
Settings: Jurkat-PD-1 cells, PE-labeled PD-L1-Ig 20 nM final; read-out: Jurkat HPD1_PDL1 IC50
Method in brief: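 PE-PD-L1-Ig 20 nM final; cells in DMEM/10% FCS; cpd pre-incubation 2 h, 37° C; ligand 1 h; PFA fix + Hoechst 33342; high-content imaging read-out.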

SMILES | IC50 [nM]
CCCC[C@@H]1NC(=O)[C@H](CCCNC(=N)N)NC(=O)[C@@H](CC(C)C)NC(=O)[C@H](CCCN)NC(=O)[C@H](CCCNC(N)=O)NC(=O)[C@H](Cc2ccc(-c3ccccc3)cc2)NC(=O)[C@H](C(C)C)NC(=O)[C@H](Cc2c[nH]c3ccccc23)NC(=O)[C@H](CC(=O)O)NC(=O)[C@H](Cc2ccc(O)cc2)NC(=O)[C@H](CC(N)=O)NC(=O)CSC[C@@H](C(=O)N[C@@H](C)C(N)=O)NC(=O)[C@H]([C@@H](C)O)NC(=O)[C@H](C(C)C)NC1=O [Compound 1177] ({CH2CO}-NYDWV[Bip][Cit][Orn][dL]R[Nle]VTCA-NH2; thioether N-14) | 78.9
CC(C)C[C@H]1NC(=O)[C@H](CCCN)NC(=O)[C@H](C(C)C)NC(=O)[C@H](Cc2ccc(-c3ccccc3)cc2)NC(=O)[C@H](C(C)C)NC(=O)[C@H](Cc2cc(F)c(O)c(F)c2)NC(=O)[C@H](CC(=O)O)NC(=O)[C@H](Cc2ccc(OCC(=O)O)cc2)NC(=O)[C@H](CN)NC(=O)CSC[C@@H](C(=O)N[C@@H](CCN)C(N)=O)NC(=O)[C@H](CCCCN)NC(=O)[C@H](C(C)C)NC(=O)[C@H](CC2CCCCC2)NC(=O)[C@H](CCN)NC1=O [Compound 2034] ({CH2CO}-[Dap]Y(Carboxymethyl)D[Tyr(3,5-F2)]V[Bip]V[Orn][dL][Dab][Cha]VKC[Dab]-NH2; thioether N-14) | 84.1
CCCC[C@@H]1NC(=O)[C@H](Cc2c[nH]c3ccccc23)NC(=O)[C@H](CC(=O)O)NC(=O)[C@H](Cc2ccc(OCC(=O)O)cc2)NC(=O)[C@H](C(C)O)NC(=O)CSC[C@@H](C(=O)N[C@@H](CC(N)=O)C(=O)O)NC(=O)[C@H](CO)NC(=O)[C@H](C(C)C)NC(=O)[C@H](CC(C)C)NC(=O)[C@H](CCN)NC(=O)[C@@H](CC(C)C)NC(=O)[C@H](CCCN)NC(=O)[C@H](C(C)CC)NC(=O)[C@H](Cc2ccc(-c3ccccc3)cc2)NC1=O (stereo partly drawn) [Compound 2571] ({CH2CO}-[Thr(3ξ)]Y(Carboxymethyl)DW[Nle][Bip][Ile(3ξ)][Orn][dL][Dab]LVSCN-OH; thioether N-14) | 26.1
CC(C)C[C@@H]1NC(=O)[C@H](Cc2c[nH]c3ccccc23)NC(=O)[C@H](CC(=O)O)NC(=O)[C@H](Cc2ccc(OCC(=O)O)cc2)NC(=O)[C@H](C(C)O)NC(=O)CSC[C@@H](C(=O)N[C@@H](CC(N)=O)C(N)=O)NC(=O)[C@H](CO)NC(=O)[C@H](C(C)C)NC(=O)[C@H](CC2CCCCC2)NC(=O)[C@H](CCN)NC(=O)[C@@H](CC(C)C)NC(=O)[C@H](CCCN)NC(=O)[C@H](C(C)O)NC(=O)[C@H](Cc2ccc(-c3ccccc3)cc2)NC1=O (stereo partly drawn) [Compound 2559] ({CH2CO}-[Thr(3ξ)]Y(Carboxymethyl)DWL[Bip][Thr(3ξ)][Orn][dL][Dab][Cha]VSCN-NH2; thioether N-14) | 24.8
C#CCC(NC(=O)[C@H](Cc1cnc[nH]1)NC(=O)[C@@H]1CSCC(=O)N[C@@H](Cc2ccncc2)C(=O)N[C@@H](Cc2ccc(OCC(=O)O)cc2)C(=O)N[C@@H](CC(=O)O)C(=O)N[C@@H](Cc2c[nH]c3ccccc23)C(=O)N[C@@H](C(C)C)C(=O)N[C@@H](Cc2ccc(-c3ccccc3)cc2)C(=O)N[C@@H]([C@@H](C)CC)C(=O)N[C@@H](CCCN)C(=O)N[C@H](CC(C)C)C(=O)N[C@@H](CCN)C(=O)N[C@@H](CC(C)C)C(=O)N[C@@H](C(C)C)C(=O)N[C@@H]([C@@H](C)O)C(=O)N1)C(N)=O (stereo partly drawn) [Compound 1763] ({CH2CO}-[4Pal]Y(Carboxymethyl)DWV[Bip]I[Orn][dL][Dab]LVTCH[ξPra]-NH2; thioether N-14) | 24
CCC(C)[C@@H]1NC(=O)[C@H](Cc2ccc(-c3ccccc3)cc2)NC(=O)[C@H](CC(C)C)NC(=O)[C@H](Cc2c[nH]c3ccccc23)NC(=O)[C@H](CC(=O)O)NC(=O)[C@H](Cc2ccc(OCC(=O)O)cc2)NC(=O)[C@H](Cc2ccc(OCC(=O)O)cc2)NC(=O)CSC[C@@H](C(=O)N[C@@H](CC(N)=O)C(=O)O)NC(=O)[C@H](CO)NC(=O)[C@H](C(C)C)NC(=O)[C@H](CC(C)C)NC(=O)[C@H](CCN)NC(=O)[C@@H](CC(C)C)NC(=O)[C@H](CCCN)NC1=O (stereo partly drawn) [Compound 2576] ({CH2CO}-Y(Carboxymethyl)Y(Carboxymethyl)DWL[Bip][Ile(3ξ)][Orn][dL][Dab]LVSCN-OH; thioether N-14) | 12.4

The remaining lines, values ahead:

IC50 [nM] | SMILES
121 | COc1ccc(C[C@@H]2NC(=O)[C@H](CCN)NC(=O)[C@@H](CC(C)C)NC(=O)[C@H](CCCN)NC(=O)[C@H](CCCNC(N)=O)NC(=O)[C@H](Cc3ccc(-c4ccccc4)cc3)NC(=O)[C@H](C(C)C)NC(=O)[C@H](Cc3c[nH]c4ccccc34)NC(=O)[C@H](CC(=O)O)NC(=O)[C@H](Cc3ccc(OCC(=O)O)cc3)NC(=O)[C@H](CN)NC(=O)CSC[C@@H](C(=O)N[C@@H](C)C(N)=O)NC(=O)[C@H]([C@@H](C)O)NC(=O)[C@H](C(C)C)NC2=O)cc1 [Compound 1351] ({CH2CO}-[Dap]Y(Carboxymethyl)DWV[Bip][Cit][Orn][dL][Dab]Y(Me)VTCA-NH2; thioether N-14)
25.7 | CC(C)[C@@H]1NC(=O)[C@H](Cc2c[nH]c3ccccc23)NC(=O)[C@H](CC(=O)O)NC(=O)[C@H](Cc2ccc(C(=O)O)cc2)NC(=O)[C@H](Cc2ccncc2)NC(=O)CSC[C@@H](C(=O)N[C@@H](C)C(N)=O)NC(=O)[C@H]([C@@H](C)O)NC(=O)[C@H](C(C)C)NC(=O)[C@H](CC2CCCCC2)NC(=O)[C@H](CCN)NC(=O)[C@@H](CC2CCCCC2)NC(=O)[C@H](CCCN)NC(=O)[C@H](CCCNC(N)=O)NC(=O)[C@H](Cc2ccc(-c3ccccc3)cc2)NC1=O [Compound 1640] ({CH2CO}-[4Pal][Phe(4-COOH)]DWV[Bip][Cit][Orn][dCha][Dab][Cha]VTCA-NH2; thioether N-14)
9.4 | CC(C)C[C@H]1NC(=O)[C@H](CCCN)NC(=O)[C@H](Cc2cnc[nH]2)NC(=O)[C@H](Cc2ccc(-c3ccccc3)cc2)NC(=O)[C@H](C(C)C)NC(=O)[C@H](Cc2c[nH]c3ccccc23)NC(=O)[C@H](CC(=O)O)NC(=O)[C@H](Cc2ccc(OCC(=O)O)cc2)NC(=O)[C@H](Cc2ccccc2)NC(=O)CSC[C@@H](C(=O)N[C@@H](CC(N)=O)C(N)=O)NC(=O)[C@H](CO)NC(=O)[C@H](C(C)C)NC(=O)[C@H](CC2CCCCC2)NC(=O)[C@H](CCN)NC1=O [Compound 2560] ({CH2CO}-FY(Carboxymethyl)DWV[Bip]H[Orn][dL][Dab][Cha]VSCN-NH2; thioether N-14)

Same assay, conditions: read-out: Jurkat HPD1_PDL1 IC50; Jurkat-PD-1 cells, PE-labeled PD-L1-Ig 20 nM final

SMILES | IC50 [nM]
CCC(C)[C@@H]1NC(=O)[C@H](Cc2ccc(-c3ccccc3)cc2)NC(=O)[C@H](C2CCCC2)NC(=O)[C@H](Cc2c[nH]c3ccccc23)NC(=O)[C@H](CC(=O)O)NC(=O)[C@H](Cc2ccc(OCC(=O)O)cc2)NC(=O)[C@H](C(C)O)NC(=O)CSC[C@@H](C(=O)N[C@@H](CC(N)=O)C(=O)O)NC(=O)[C@H](CO)NC(=O)[C@H](C(C)C)NC(=O)[C@H](CC(C)C)NC(=O)[C@H](CCN)NC(=O)[C@@H](CC(C)C)NC(=O)[C@H](CCCN)NC1=O (stereo partly drawn) [Compound 2578] ({CH2CO}-[Thr(3ξ)]Y(Carboxymethyl)DW[Gly(cPent)][Bip][Ile(3ξ)][Orn][dL][Dab]LVSCN-OH; thioether N-14) | 24.3
